These results are taken from publication PMC4543647, “Structural and Functional Analysis of BipA, a Regulator of Virulence in Enteropathogenic Escherichia coli” (The Journal of Biological Chemistry, 2015).

Where two headings read alike, the source gives them in different places.

The target of assay [1] is T1, BipA (TypA or YihK) (Escherichia coli, UniProt P0DTT0). Briefly: isothermal titration calorimetry; crystal structure […] A. It is filed as binding. As to conditions: read-out: Ka (converted).
In assay [2] the target is T1, BipA (TypA or YihK). The description is as above. It is filed as binding.

T1 sequence (P0DTT0 whole entry): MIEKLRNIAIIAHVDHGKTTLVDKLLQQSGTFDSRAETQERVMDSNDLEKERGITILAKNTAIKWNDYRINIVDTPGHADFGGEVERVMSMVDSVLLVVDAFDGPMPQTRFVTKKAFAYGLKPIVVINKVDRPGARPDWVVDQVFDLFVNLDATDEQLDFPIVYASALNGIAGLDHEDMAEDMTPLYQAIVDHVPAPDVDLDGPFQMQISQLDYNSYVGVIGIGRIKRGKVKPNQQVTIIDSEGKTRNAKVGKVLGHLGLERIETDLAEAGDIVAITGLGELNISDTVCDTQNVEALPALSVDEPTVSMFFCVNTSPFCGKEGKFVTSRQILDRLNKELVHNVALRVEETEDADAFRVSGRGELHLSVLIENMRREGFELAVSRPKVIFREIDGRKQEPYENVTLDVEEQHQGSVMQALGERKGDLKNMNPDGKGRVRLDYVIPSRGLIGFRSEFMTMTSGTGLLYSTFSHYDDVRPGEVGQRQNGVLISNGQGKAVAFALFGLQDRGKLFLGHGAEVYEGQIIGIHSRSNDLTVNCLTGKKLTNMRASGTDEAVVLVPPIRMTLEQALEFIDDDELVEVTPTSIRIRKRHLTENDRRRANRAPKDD

`Nc1nc2c(ncn2[C@@H]2O[C@H](COP(=O)(O)OP(=O)(O)O)[C@@H](O)[C@H]2O)c(=O)[nH]1` [GDP]: at BipA (TypA or YihK) [1], the Kd is 14.5 µM. With `Nc1nc2c(ncn2[C@@H]2O[C@H](COP(=O)(O)OP(=O)(O)O)[C@@H](OP(=O)(O)OP(=O)(O)O)[C@H]2O)c(=O)[nH]1` [ppGpp, guanosine-3′, 5′-bis pyrophosphate], at BipA (TypA or YihK) [2], the Kd is 41.7 µM.
